Drawing on the NIST ThermoML archive (doi:10.1016/j.jct.2019.02.001), this text covers molar enthalpy for 3 compounds.

Values joined by “and” are separate entries in the source; they are usually repeats but may differ in a detail not shown here. Equal values may be shown once. ± gives the expanded uncertainty stated by the source.

The data set in a line: molar enthalpy of vaporization or sublimation. To be noted: 298.15 K; Liquid; Static calorimetry.
As to `CCCCCCCCCC` [decane], the molar enthalpy was 11.9 kcal/mol and 12.5 kcal/mol.
Regarding `CCOC(=O)c1ccccc1N` [ethyl 2-aminobenzoate], the molar enthalpy turned out to be 17 ± 0.311 kcal/mol.
In the case of `CCOC(=O)c1cccc(N)c1` [ethyl 3-aminobenzoate], the molar enthalpy was found to be 19.9 ± 0.526 kcal/mol.
